For series [1] the following is noted: mouse, in vivo, sc, 50 mg/kg.
For series [2] the following is noted: mouse, in vivo, sc, 50 mg/kg. This is another data set of the same source.
For series [3] the following is noted: rat, in vivo, sc, 50 mg/kg.
The conditions of series [4]: rat, in vivo, sc, 50 mg/kg. This is another data set of the same source.
For series [5] the following is noted: mouse, in vivo, sc, 50 mg/kg. The source holds these as a separate data set.
For series [6] the following is noted: rat, in vivo, sc, 50 mg/kg. This is another data set of the same source.

Where two headings read alike, the source gives them in different places. e = 2'-O-(2-methoxyethyl) (MOE); d = 2'-deoxy (DNA)

As to “ISIS 412223: 5-10-5 MOE gapmer ACAGTTTCTGGCAGGCCTCG (sugars from the 5' end e5 d10 e5, backbone and methylation of C not given here)”, the BUN in series [1] came to 28 mg/dL. In series [2], the ALT was 60 IU/L, the AST came out at 125 IU/L, the Bilirubin came to 0.20 mg/dL and the Cholesterol amounted to 117 mg/dL. In addition, in series [3], the BUN amounted to 24 mg/dL, the Creatinine was determined as 46 mg/dL, the Total urine protein came out at 224 mg/dL and the Urine protein/creatinine ratio was found to be 4.6. In addition, in series [4], the ALT was 85 IU/L, the AST is reported as 180 IU/L, the Albumin is 5 and the Bilirubin was 0.14 mg/dL. Also, in series [5], the HCT came to 48%, the Lymphocyte is 4599 cells/μL, the Neutrophil turned out to be 1756 cells/μL and the Platelets is recorded as 862 10^3/μL. For the same substance, in series [5], the RBC is reported as 9 10^6/μL, the WBC was 7 10^3/μL, the hemoglobin is on record as 15 g/dL and the monocytes was found to be 200 cells/μL. In series [6], this substance came in with an HCT of 41%, a Lymphocyte of 16990, a Neutrophil of 1826 and a Platelets of 567. In series [6], the RBC was 7.2 10^6/μL, the WBC was 20 10^3/μL and the hemoglobin stood at 13.1 g/dL.

Substance “ISIS 412224: 5-10-5 MOE gapmer GCATTGGTGCACAGTTTCTG (sugars from the 5' end e5 d10 e5, backbone and methylation of C not given here)” showed a BUN in series [1] of 29 mg/dL. In series [2], this substance gave an ALT of 214 IU/L, an AST of 183 IU/L, a Bilirubin of 0.19 mg/dL and a Cholesterol of 114 mg/dL. Also, in series [3], the BUN is on record as 24 mg/dL, the Creatinine is on record as 44 mg/dL, the Total urine protein is given as 171 mg/dL and the Urine protein/creatinine ratio turned out to be 3.8. In series [4], the ALT stood at 84 IU/L, the AST turned out to be 132 IU/L, the Albumin is 4 and the Bilirubin is given as 0.12 mg/dL. In addition, in series [5], the HCT is on record as 50%, the Lymphocyte was determined as 6284 cells/μL, the Neutrophil came to 2107 cells/μL and the Platelets is recorded as 647 10^3/μL. In series [5], the RBC was 10 10^6/μL, the WBC is listed as 9 10^3/μL, the hemoglobin is given as 15 g/dL and the monocytes is 195 cells/μL. In series [6], this substance displayed an HCT of 42%, a Lymphocyte of 16807, a Neutrophil of 1865 and a Platelets of 685. Besides, in series [6], the RBC is 7.4 10^6/μL, the WBC is given as 20 10^3/μL and the hemoglobin was found to be 13.4 g/dL.

In series [1], “ISIS 412225: 5-10-5 MOE gapmer GCAGCGGACGGCATTGGTGC (sugars from the 5' end e5 d10 e5, backbone and methylation of C not given here)” registered a BUN of 23 mg/dL. In series [2], the ALT turned out to be 40 IU/L, the AST turned out to be 69 IU/L, the Bilirubin worked out at 0.23 mg/dL and the Cholesterol stood at 128 mg/dL. In series [3], the BUN was found to be 23 mg/dL, the Creatinine is 58 mg/dL, the Total urine protein is listed as 209 mg/dL and the Urine protein/creatinine ratio is on record as 4.0. In series [4], the ALT was found to be 48 IU/L, the AST is 108 IU/L, the Albumin is on record as 5 and the Bilirubin is recorded as 0.15 mg/dL. Further, in series [5], the HCT amounted to 50%, the Lymphocyte is 4969 cells/μL, the Neutrophil turned out to be 1547 cells/μL and the Platelets is 574 10^3/μL. For the same substance, in series [5], the RBC was 9 10^6/μL, the WBC was 7 10^3/μL, the hemoglobin was 15 g/dL and the monocytes was 293 cells/μL. In series [6], this substance registered an HCT of 42%, a Lymphocyte of 13204, a Neutrophil of 1499 and a Platelets of 673. Besides, in series [6], the RBC is reported as 7.4 10^6/μL, the WBC is reported as 15 10^3/μL and the hemoglobin is reported as 13.4 g/dL.

As to “ISIS 413481: 5-10-5 MOE gapmer GGTGCACAGTTTCTGGCAGG (sugars from the 5' end e5 d10 e5, backbone and methylation of C not given here)”, the BUN in series [1] is on record as 23 mg/dL. Further, in series [2], the ALT worked out at 85 IU/L, the AST amounted to 143 IU/L, the Bilirubin is given as 0.18 mg/dL and the Cholesterol is recorded as 153 mg/dL. Moreover, in series [3], the BUN worked out at 26 mg/dL, the Creatinine amounted to 45 mg/dL, the Total urine protein was determined as 148 mg/dL and the Urine protein/creatinine ratio was 3.6. In series [4], this substance displayed an ALT of 54 IU/L, an AST of 80 IU/L, an Albumin of 4 and a Bilirubin of 0.22 mg/dL. Further, in series [5], the HCT is 45%, the Lymphocyte is given as 4329 cells/μL, the Neutrophil worked out at 1904 cells/μL and the Platelets was 841 10^3/μL. Besides, in series [5], the RBC was 9 10^6/μL, the WBC was 7 10^3/μL, the hemoglobin worked out at 13 g/dL and the monocytes was determined as 204 cells/μL. In series [6], this substance came in with an HCT of 43%, a Lymphocyte of 12707, a Neutrophil of 1046 and a Platelets of 552. In series [6], the RBC was 7.5 10^6/μL, the WBC is listed as 14 10^3/μL and the hemoglobin was determined as 14.2 g/dL.

As to “ISIS 413482: 5-10-5 MOE gapmer GGACGGCATTGGTGCACAGT (sugars from the 5' end e5 d10 e5, backbone and methylation of C not given here)”, in series [1], the BUN stood at 27 mg/dL. In series [2], this substance returned an ALT of 54 IU/L, an AST of 77 IU/L, a Bilirubin of 0.24 mg/dL and a Cholesterol of 138 mg/dL. Further, in series [3], the BUN came to 23 mg/dL, the Creatinine was determined as 34 mg/dL, the Total urine protein is given as 157 mg/dL and the Urine protein/creatinine ratio is recorded as 4.8. In series [4], this substance gave an ALT of 59 IU/L, an AST of 157 IU/L, an Albumin of 4 and a Bilirubin of 0.14 mg/dL. Moreover, in series [5], the HCT is given as 50%, the Lymphocyte was 5584 cells/μL, the Neutrophil worked out at 1958 cells/μL and the Platelets is 818 10^3/μL. Also, in series [5], the RBC is 10 10^6/μL, the WBC is reported as 8 10^3/μL, the hemoglobin was 15 g/dL and the monocytes was determined as 275 cells/μL. In series [6], this substance displayed an HCT of 40%, a Lymphocyte of 11430, a Neutrophil of 1125 and a Platelets of 641. For the same substance, in series [6], the RBC is 7.1 10^6/μL, the WBC was 13 10^3/μL and the hemoglobin is 13.2 g/dL.

Consider “ISIS 416857: MOE gapmer, nucleobases 1275 to 1318 of SEQ ID NO: 1 (Table 8) (antisense CGGCATTGGTGCACAGTTTC; MOE gapmer, wing and gap sizes not given here)”, for which the BUN in series [1] was 17 mg/dL. In series [2], this substance registered an ALT of 370 IU/L, an AST of 269 IU/L, a Bilirubin of 0.22 mg/dL and a Cholesterol of 94 mg/dL. In series [5], the HCT is 53%, the Lymphocyte is recorded as 3697 cells/μL, the Neutrophil worked out at 1334 cells/μL and the Platelets is 603 10^3/μL. In series [5], the RBC is recorded as 10 10^6/μL, the WBC was 6 10^3/μL, the hemoglobin is reported as 15 g/dL and the monocytes is 215 cells/μL.

As for “ISIS 416862: MOE gapmer, nucleobases 1275 to 1318 of SEQ ID NO: 1 (Table 8) (antisense AGCGGACGGCATTGGTGCAC; MOE gapmer, wing and gap sizes not given here)”, the BUN in series [1] is reported as 21 mg/dL. In series [2], this substance displayed an ALT of 225 IU/L, an AST of 172 IU/L, a Bilirubin of 0.36 mg/dL and a Cholesterol of 103 mg/dL. Also, in series [5], the HCT worked out at 49%, the Lymphocyte worked out at 4445 cells/μL, the Neutrophil is 1118 cells/μL and the Platelets is listed as 1007 10^3/μL. Further, in series [5], the RBC is reported as 9 10^6/μL, the WBC is 6 10^3/μL, the hemoglobin came out at 14 g/dL and the monocytes is recorded as 174 cells/μL.

In series [1], “ISIS 416865: MOE gapmer, nucleobases 1275 to 1318 of SEQ ID NO: 1 (Table 8) (antisense TGGCAGCGGACGGCATTGGT; MOE gapmer, wing and gap sizes not given here)” yielded a BUN of 20 mg/dL. Further, in series [2], the ALT stood at 383 IU/L, the AST is on record as 262 IU/L, the Bilirubin came out at 0.27 mg/dL and the Cholesterol worked out at 95 mg/dL. In series [5], the HCT is recorded as 50%, the Lymphocyte worked out at 5148 cells/μL, the Neutrophil was found to be 1227 cells/μL and the Platelets is listed as 872 10^3/μL. In series [5], the RBC was 9 10^6/μL, the WBC was 7 10^3/μL, the hemoglobin was 14 g/dL and the monocytes is 315 cells/μL.

The values above are taken from patent publication US20230263822A1, “MODULATION OF FACTOR 11 EXPRESSION” (Ionis Pharmaceuticals, Inc., priority 2008, published 2023).
